What all share (assay): relative viability (nuclei count vs DMSO), 5 days (fraction); higher = more cells survive
Compound in the test “Salubrinal + Palbociclib”: O=C(/C=C/c1ccccc1)NC(NC(=S)Nc1cccc2cccnc12)C(Cl)(Cl)Cl [Salubrinal] + CC(=O)c1c(C)c2cnc(Nc3ccc(N4CCNCC4)cn3)nc2n(C2CCCC2)c1=O [Palbociclib] (partner 0.5 µM)
In short, it runs like this:
(§1)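 Relative viability is defined as nuclei in treated wells over nuclei in vehicle wells. Duplicate plates were run and medians reported. Lung cancer cell lines in 1536-well plates were dosed by pin tool one day after seeding, with one drug or with a fixed anchor-drug dose plus five library-drug doses (not always all listed) in √10 steps, and nuclei were counted after 5 days.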

Compound in the test “Salubrinal + Tozasertib”: O=C(/C=C/c1ccccc1)NC(NC(=S)Nc1cccc2cccnc12)C(Cl)(Cl)Cl [Salubrinal] + Cc1cc(Nc2cc(N3CCN(C)CC3)nc(Sc3ccc(NC(=O)C4CC4)cc3)n2)n[nH]1 [Tozasertib] (partner 0.1 µM)
In short, it runs like this:
as §1

Compound in the test “Salubrinal + Alpelisib”: O=C(/C=C/c1ccccc1)NC(NC(=S)Nc1cccc2cccnc12)C(Cl)(Cl)Cl [Salubrinal] + Cc1nc(NC(=O)N2CCC[C@H]2C(N)=O)sc1-c1ccnc(C(C)(C)C(F)(F)F)c1 [Alpelisib] (partner 2 µM)
In short, it runs like this: as §1

Compound in the test “Salubrinal + Phenformin”: O=C(/C=C/c1ccccc1)NC(NC(=S)Nc1cccc2cccnc12)C(Cl)(Cl)Cl [Salubrinal] + N=C(N)NC(=N)NCCc1ccccc1 [Phenformin] (partner 250 µM)
The essentials:
as §1

On to NCI-H1666, for which the relative viability with Salubrinal + Palbociclib (first compound 0.08 µM) stood at 0.687; in the test with Salubrinal + Palbociclib (first compound 0.253 µM) it was 0.593; with Salubrinal + Palbociclib (first compound 0.8 µM) it was 0.632; with Salubrinal + Palbociclib (first compound 2.53 µM) it was 0.641; with Salubrinal + Palbociclib (first compound 8 µM) it was 0.603; with Salubrinal + Tozasertib (first compound 0.08 µM), 0.646. Besides, the relative viability in the test with Salubrinal + Tozasertib (first compound 0.253 µM) is 0.587; in the test with Salubrinal + Tozasertib (first compound 0.8 µM) it was 0.611; with Salubrinal + Tozasertib (first compound 2.53 µM), 0.553; with Salubrinal + Tozasertib (first compound 8 µM), 0.608; in the test with Salubrinal + Alpelisib (first compound 0.08 µM) it was 0.985; in the test with Salubrinal + Alpelisib (first compound 0.253 µM) it was 0.791. Further, the relative viability in the test with Salubrinal + Alpelisib (first compound 0.8 µM) turned out to be 0.923; in the test with Salubrinal + Alpelisib (first compound 2.53 µM) it was 1.01; with Salubrinal + Alpelisib (first compound 8 µM), 0.993; with Salubrinal + Phenformin (first compound 0.08 µM), 0.535; in the test with Salubrinal + Phenformin (first compound 0.253 µM), 0.603; with Salubrinal + Phenformin (first compound 0.8 µM), 0.561. The relative viability with Salubrinal + Phenformin (first compound 2.53 µM) is 0.547; with Salubrinal + Phenformin (first compound 8 µM), 0.514.
On to NCI-H1993, for which the relative viability with Salubrinal + Palbociclib (first compound 0.08 µM) was determined as 0.718; with Salubrinal + Palbociclib (first compound 0.253 µM) it was 0.596; with Salubrinal + Palbociclib (first compound 0.8 µM), 0.737; with Salubrinal + Palbociclib (first compound 8 µM), 0.648; with Salubrinal + Tozasertib (first compound 0.08 µM), 0.653; in the test with Salubrinal + Tozasertib (first compound 0.253 µM), 0.577. Besides, the relative viability is 0.597 with Salubrinal + Tozasertib (first compound 0.8 µM); 0.674 with Salubrinal + Tozasertib (first compound 2.53 µM); 0.649 in the test with Salubrinal + Tozasertib (first compound 8 µM); 0.62 with Salubrinal + Alpelisib (first compound 0.08 µM); 0.595 with Salubrinal + Alpelisib (first compound 0.253 µM); 0.735 in the test with Salubrinal + Alpelisib (first compound 0.8 µM). Also, the relative viability with Salubrinal + Alpelisib (first compound 2.53 µM) was 0.688; with Salubrinal + Alpelisib (first compound 8 µM), 0.676; with Salubrinal + Phenformin (first compound 0.08 µM), 0.464; with Salubrinal + Phenformin (first compound 0.253 µM), 0.545; with Salubrinal + Phenformin (first compound 0.8 µM), 0.506; with Salubrinal + Phenformin (first compound 2.53 µM) it was 0.503. Besides, the relative viability in the test with Salubrinal + Phenformin (first compound 8 µM) stood at 0.509.
Turning to NCI-H1975, the relative viability turned out to be 0.473 with Salubrinal + Palbociclib (first compound 0.08 µM); 0.424 with Salubrinal + Palbociclib (first compound 0.253 µM); 0.675 with Salubrinal + Palbociclib (first compound 0.8 µM); 0.717 with Salubrinal + Palbociclib (first compound 2.53 µM); 0.567 with Salubrinal + Palbociclib (first compound 8 µM); 0.989 with Salubrinal + Tozasertib (first compound 0.08 µM). The relative viability came out at 0.621 with Salubrinal + Tozasertib (first compound 0.253 µM); 0.785 with Salubrinal + Tozasertib (first compound 0.8 µM); 0.517 in the test with Salubrinal + Tozasertib (first compound 2.53 µM); 0.186 with Salubrinal + Tozasertib (first compound 8 µM); 0.713 in the test with Salubrinal + Alpelisib (first compound 0.08 µM); 0.467 with Salubrinal + Alpelisib (first compound 0.253 µM). Moreover, the relative viability in the test with Salubrinal + Alpelisib (first compound 0.8 µM) turned out to be 0.766; with Salubrinal + Alpelisib (first compound 2.53 µM) it was 0.674; in the test with Salubrinal + Alpelisib (first compound 8 µM), 0.579; in the test with Salubrinal + Phenformin (first compound 0.08 µM), 0.465; with Salubrinal + Phenformin (first compound 0.253 µM), 0.359; with Salubrinal + Phenformin (first compound 0.8 µM) it was 0.434. Further, the relative viability with Salubrinal + Phenformin (first compound 2.53 µM) is 0.427; in the test with Salubrinal + Phenformin (first compound 8 µM), 0.375.
In the case of HCC-44, the relative viability stood at 1.03 in the test with Salubrinal + Palbociclib (first compound 0.08 µM); 0.941 with Salubrinal + Palbociclib (first compound 0.253 µM); 0.971 in the test with Salubrinal + Palbociclib (first compound 0.8 µM); 0.998 in the test with Salubrinal + Palbociclib (first compound 2.53 µM); 1 in the test with Salubrinal + Palbociclib (first compound 8 µM); 1.24 in the test with Salubrinal + Tozasertib (first compound 0.08 µM). Further, the relative viability with Salubrinal + Tozasertib (first compound 0.253 µM) is 0.916; with Salubrinal + Tozasertib (first compound 0.8 µM), 1.08; with Salubrinal + Tozasertib (first compound 2.53 µM) it was 0.74; with Salubrinal + Tozasertib (first compound 8 µM), 0.708; with Salubrinal + Alpelisib (first compound 0.08 µM) it was 0.904; with Salubrinal + Alpelisib (first compound 0.253 µM), 0.758. Further, the relative viability was determined as 0.806 with Salubrinal + Alpelisib (first compound 0.8 µM); 0.84 in the test with Salubrinal + Alpelisib (first compound 2.53 µM); 0.671 in the test with Salubrinal + Alpelisib (first compound 8 µM); 0.193 with Salubrinal + Phenformin (first compound 0.08 µM); 0.212 with Salubrinal + Phenformin (first compound 0.253 µM); 0.391 with Salubrinal + Phenformin (first compound 0.8 µM). Besides, the relative viability was 0.364 with Salubrinal + Phenformin (first compound 2.53 µM) and 0.182 with Salubrinal + Phenformin (first compound 8 µM).

For the origin of these results see the supplement of paper PMC10307832.
